# Columns and labels:
# [1] = tested on: rice; assay: Test C flooded paddy test; assay type: in vivo, Oryza sativa; details: Flood
# Excerpt: (§1) Plant species in the flooded paddy test consisted of rice (Oryza sativa), sedge, umbrella (small-flower umbrella sedge, Cyperus difformis), ducksalad (Heteranthera limosa), and barnyardgrass (Echinochloa crus-galli) grown to the 2-leaf stage for testing. At time of treatment, test pots were flooded to 3 cm above the soil surface, treated by application of test compounds directly to the paddy water, and then maintained at that water depth for the duration of the test. Treated plants and controls were maintained in a greenhouse for 13 to 15 days, after which time all species were compared to controls and visually evaluated. Plant response ratings, summarized in Table C, are based on a scale of 0 to 100 where 0 is no effect and 100 is complete control. A dash (-) response means no test result.
# [2] = tested on: barnyardgrass; assay: Test A pre-/postemergence herbicide test; assay type: in vivo, Echinochloa crus-galli
# In short: (§2)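 Planted in loam–sand blend; treated the same day preemergence by directed soil spray, while separately grown plants at one- to two-leaf stage got postemergence spray. Compared visually with untreated controls after approximately 10 days; 100 means complete control.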
# [3] = tested on: crabgrass, large; assay: Test A pre-/postemergence herbicide test; assay type: in vivo, Digitaria sanguinalis
# In short: as §2
# [4] = tested on: ducksalad; assay: Test C flooded paddy test; assay type: in vivo, Heteranthera limosa; details: Flood
# Excerpt: as §1
# [5] = tested on: morningglory; assay: Test A pre-/postemergence herbicide test; assay type: in vivo, Ipomoea spp.
# In short: as §2
# [6] = tested on: sedge, umbrella; assay: Test C flooded paddy test; assay type: in vivo, Cyperus difformis; details: Flood
# In short: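 Plants at the 2-leaf stage in pots flooded to 3 cm were treated by applying compound directly to the paddy water, with depth held throughout. After 13 to 15 days in a greenhouse, response was rated visually against controls on a 0 (no effect) to 100 (complete control) scale.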
# [7] = tested on: giant foxtail; assay: Test A pre-/postemergence herbicide test; assay type: in vivo, Setaria faberii; details: for Plant response rating, Foxtail, Giant: 0 to 100 scale
# In short: as §2
# [8] = tested on: barnyardgrass; assay: Test C flooded paddy test; assay type: in vivo, Echinochloa crus-galli; details: Flood
# Excerpt: as §1
# [9] = tested on: pigweed; assay: Test A pre-/postemergence herbicide test; assay type: in vivo, Amaranthus retroflexus
# In short: as §2
# [10] = tested on: wheat; assay: Test A pre-/postemergence herbicide test; assay type: in vivo, Triticum aestivum
# In short: as §2
# [11] = tested on: velvetleaf; assay: Test A pre-/postemergence herbicide test; assay type: in vivo, Abutilon theophrasti
# In short: as §2
# [12] = tested on: corn; assay: Test A pre-/postemergence herbicide test; assay type: in vivo, Zea mays
# In short: as §2
# [13] = 125 g ai/ha, scale of 0 to 100 where 0 is no effect and 100 is complete control, 13 to 15 days
# [14] = 250 g ai/ha, scale of 0 to 100 where 0 is no effect and 100 is complete control, 13 to 15 days
# [15] = 125 g ai/ha, visual rating, 0 to 100 scale, 0 no effect, 100 complete control, approximately 10 days, preemergence
# [16] = Postemergence, 125 g ai/ha, 0 to 100 scale, 0 is no effect, 100 is complete control
# [17] = preemergence, 500 g ai/ha, 0 to 100 scale, 0 is no effect and 100 is complete control
# [18] = 31 g ai/ha, scale of 0 to 100 where 0 is no effect and 100 is complete control, 13 to 15 days
# [19] = 62 g ai/ha, scale of 0 to 100 where 0 is no effect and 100 is complete control, 13 to 15 days
# [20] = Postemergence, 125 g ai/ha, 0 to 100 scale, 0 no effect, 100 complete control
# [21] = Postemergence, 500 g ai/ha, 0 to 100 scale (0 no effect, 100 complete control)
# [22] = Preemergence, 125 g ai/ha, visual rating on 0 to 100 scale (0 no effect, 100 complete control)
# [23] = preemergence, 500 g ai/ha, 0 to 100 scale
smiles,measurement,setting,value
O=C1NCC(c2cccc(C(F)(F)F)c2)C1C(=O)Nc1ccccc1Br (racemic) [Compound 190],"Plant response rating, Rice",[1]; [13],0
same,"Plant response rating, Rice",[1]; [14],0
same,"Plant response rating, Rice","[1]; 500 g ai/ha, scale 0 to 100",0
same,"Plant response rating, Rice","[1]; 1000 g ai/ha, scale 0 to 100",15
same,"Plant response rating, Barnyardgrass",[2]; [15],60
same,"Plant response rating, Barnyardgrass",[2]; [16],70
same,"Barnyardgrass plant response rating (0 to 100 scale, 0 is no effect, 100 is complete control)","[2]; Postemergence, 500 g ai/ha",90
same,"Plant response rating, Barnyardgrass",[2]; [17],90
same,"Plant response rating, Crabgrass, Large",[3]; [15],90
same,"Plant response rating, Crabgrass, Large",[3]; [16],70
same,"Crabgrass, Large plant response rating (0 to 100 scale, 0 is no effect, 100 is complete control)","[3]; Postemergence, 500 g ai/ha",90
same,"Plant response rating, Crabgrass, Large",[3]; [17],90
same,"Plant response rating, Ducksalad",[4]; [13],50
same,"Plant response rating, Ducksalad",[4]; [14],75
same,"Plant response rating, Ducksalad","[4]; 500 g ai/ha, scale 0 to 100",85
same,"Plant response rating, Ducksalad","[4]; 1000 g ai/ha, scale 0 to 100",100
same,"Plant response rating, Morningglory",[5]; [15],0
same,"Plant response rating, Morningglory",[5]; [16],0
same,"Morningglory plant response rating (0 to 100 scale, 0 is no effect, 100 is complete control)","[5]; Postemergence, 500 g ai/ha",10
same,"Plant response rating, Morningglory",[5]; [17],0
same,"Plant response rating, Sedge, Umbrella",[6]; [13],0
same,"Plant response rating, Sedge, Umbrella",[6]; [14],0
same,"Plant response rating, Sedge, Umbrella","[6]; 500 g ai/ha, scale 0 to 100",0
same,"Plant response rating, Sedge, Umbrella","[6]; 1000 g ai/ha, scale 0 to 100",0
same,"Plant response rating, Foxtail, Giant","[7]; 125 g ai/ha, visual rating, 0 no effect, 100 complete control, approximately 10 days, preemergence",80
same,"Plant response rating, Foxtail, Giant","[7]; Postemergence, 125 g ai/ha, 0 is no effect, 100 is complete control",70
same,"Foxtail, Giant plant response rating (0 to 100 scale, 0 is no effect, 100 is complete control)","[7]; Postemergence, 500 g ai/ha",80
same,"Plant response rating, Foxtail, Giant","[7]; preemergence, 500 g ai/ha, 0 is no effect and 100 is complete control",90
same,"Plant response rating, Barnyardgrass",[8]; [13],10
same,"Plant response rating, Barnyardgrass",[8]; [14],25
same,"Plant response rating, Barnyardgrass","[8]; 500 g ai/ha, scale 0 to 100",50
same,"Plant response rating, Barnyardgrass","[8]; 1000 g ai/ha, scale 0 to 100",65
same,"Plant response rating, Pigweed",[9]; [15],0
same,"Plant response rating, Pigweed",[9]; [16],0
same,"Pigweed plant response rating (0 to 100 scale, 0 is no effect, 100 is complete control)","[9]; Postemergence, 500 g ai/ha",0
same,"Plant response rating, Pigweed",[9]; [17],0
same,"Plant response rating, Wheat",[10]; [15],0
same,"Plant response rating, Wheat",[10]; [16],0
same,"Wheat plant response rating (0 to 100 scale, 0 is no effect, 100 is complete control)","[10]; Postemergence, 500 g ai/ha",0
same,"Plant response rating, Wheat",[10]; [17],30
same,"Plant response rating, Velvetleaf",[11]; [15],0
same,"Plant response rating, Velvetleaf",[11]; [16],0
same,"Velvetleaf plant response rating (0 to 100 scale, 0 is no effect, 100 is complete control)","[11]; Postemergence, 500 g ai/ha",10
same,"Plant response rating, Velvetleaf",[11]; [17],0
same,"Plant response rating, Corn",[12]; [15],0
same,"Plant response rating, Corn",[12]; [16],0
same,"Corn plant response rating (0 to 100 scale, 0 is no effect, 100 is complete control)","[12]; Postemergence, 500 g ai/ha",40
same,"Plant response rating, Corn",[12]; [17],0
CC1(C)NC(=O)C(C(=O)Nc2ccccc2F)C1c1ccc(F)c(F)c1 (centres unmarked) [Compound 11],"Plant response rating, Rice",[1]; [18],0
same,"Plant response rating, Rice",[1]; [19],0
same,"Plant response rating, Rice",[1]; [13],0
same,"Plant response rating, Rice","[1]; 250 g ai/ha, scale 0 to 100",0
same,"Plant response rating, Barnyardgrass",[2]; [20],0
same,"Plant response rating, Barnyardgrass",[2]; [21],50
same,Barnyardgrass plant response rating,[2]; [22],0
same,"Plant response rating, Barnyardgrass","[2]; preemergence, 500 g ai/ha, 0 to 100 scale (0 no effect, 100 complete control)",20
same,"Plant response rating, Crabgrass, Large",[3]; [20],0
same,"Plant response rating, Crabgrass, Large",[3]; [21],50
same,"Crabgrass, Large plant response rating",[3]; [22],70
same,"Plant response rating, Crabgrass, Large",[3]; [23],90
same,"Plant response rating, Ducksalad",[4]; [18],0
same,"Plant response rating, Ducksalad",[4]; [19],0
same,"Plant response rating, Ducksalad",[4]; [13],0
same,"Plant response rating, Ducksalad","[4]; 250 g ai/ha, scale 0 to 100",0
same,"Plant response rating, Morningglory",[5]; [20],0
same,"Plant response rating, Morningglory",[5]; [21],0
same,Morningglory plant response rating,[5]; [22],0
same,"Plant response rating, Morningglory",[5]; [23],0
same,"Plant response rating, Sedge, Umbrella",[6]; [18],0
same,"Plant response rating, Sedge, Umbrella",[6]; [19],0
same,"Plant response rating, Sedge, Umbrella",[6]; [13],0
same,"Plant response rating, Sedge, Umbrella","[6]; 250 g ai/ha, scale 0 to 100",0
same,"Plant response rating, Foxtail, Giant","[7]; Postemergence, 125 g ai/ha, 0 no effect, 100 complete control",0
same,"Foxtail, Giant plant response rating",[7]; [22],20
same,"Plant response rating, Foxtail, Giant","[7]; preemergence, 500 g ai/ha",50
same,"Plant response rating, Barnyardgrass",[8]; [18],0
same,"Plant response rating, Barnyardgrass",[8]; [19],0
same,"Plant response rating, Barnyardgrass",[8]; [13],0
same,"Plant response rating, Barnyardgrass","[8]; 250 g ai/ha, scale 0 to 100",0
same,"Plant response rating, Pigweed",[9]; [20],0
same,"Plant response rating, Pigweed",[9]; [21],0
same,Pigweed plant response rating,[9]; [22],0
same,"Plant response rating, Pigweed",[9]; [23],0
same,"Plant response rating, Wheat",[10]; [20],0
same,"Plant response rating, Wheat",[10]; [21],0
same,Wheat plant response rating,[10]; [22],0
same,"Plant response rating, Wheat",[10]; [23],0
same,"Plant response rating, Velvetleaf",[11]; [20],0
same,"Plant response rating, Velvetleaf",[11]; [21],0
same,Velvetleaf plant response rating,[11]; [22],0
same,"Plant response rating, Velvetleaf",[11]; [23],0
same,"Plant response rating, Corn",[12]; [20],0
same,"Plant response rating, Corn",[12]; [21],0
same,Corn plant response rating,[12]; [22],0
same,"Plant response rating, Corn",[12]; [23],0
